Measured values from patent publication US20240288446A1, “METHOD FOR DIAGNOSING FIBRINOLYTIC INSUFFICIENCY RELATED TO NEUTROPHIL EXTRACELLULAR TRAPS” (Hôpitaux Universitaires de Strasbourg, priority 2019, published 2024).
“Also recorded” adds a separate entry of the source.

Key:
Assay type in all cases: biochemical
[1] = biological target: T1, HNE-DNA complexes of NETs (Homo sapiens, UniProt P08246); assay: Activity of DNA-bound elastase on NETs, chromogenic substrate MeO-Suc-AAPV-pNA; details: NETs from PMA-stimulated neutrophils, MeO-Suc-AAPV-CMK 100 μM, α1-PI 10 μM, aprotinin 10 μM (FIG. 1B legend)
T1 construct: endogenous in cells
T1 sequence (P08246 30-247 limits assumed): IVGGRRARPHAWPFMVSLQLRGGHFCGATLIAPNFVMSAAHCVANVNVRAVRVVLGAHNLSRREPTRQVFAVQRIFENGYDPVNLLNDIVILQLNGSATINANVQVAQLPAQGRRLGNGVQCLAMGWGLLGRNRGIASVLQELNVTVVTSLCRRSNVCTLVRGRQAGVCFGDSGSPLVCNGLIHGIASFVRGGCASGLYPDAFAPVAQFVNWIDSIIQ
Method: FIGS. 1A-C represent Neutrophil Extracellular Traps (NETs) generated from neutrophils seeded onto a fibrin matrix: DNA and HNE activity of NETs are shown. Neutrophils isolated from human blood and seeded on wells of a 96-wells microtiter plate containing or not a fibrin matrix, were activated by 50 nM PMA in HBSS. After 4 hours incubation at 37° C. in a humidified 5% CO2 incubator, the plate was centrifuged at 3000 g for 5 min, the supernatant was collected and cells and NETs in the well stained with a 10 μg/ml solution of Hoechst 33342 a minor-groove DNA binder. Elastase activity bound to NETs was detected with the chromogenic substrate N-methoxysuccinyl-Ala-Ala-Pro-Val-p-nitroanilide. FIG. 1A represents fluorescence microscopy images (X20) of nuclei and extracellular DNA fibers stained with Hoechst. Scale bars: 20 μm. […] NETs: neutrophil extracellular traps generated in the absence of fibrin. […] C. […] Purified HNE was incubated (15 min) at different concentrations in buffer or plasma before activity measurements with 1.5 mM of the chromogenic substrate N-methoxysuccinyl-Ala-Ala-Pro-Val-p-nitroanilide.
NETs were identified by (1) DNA staining with a 10 μg/ml solution of Hoechst 33342 and (2) measuring the activity of DNA-bound elastase.
To detect elastase bound to NETs, the substrate MeO-Suc-AAPV-pNA (100 μl per well, 1.5 mM final concentration in HBSS) was incubated with NETs after two gentle washes with HBSS. DNA-bound HNE activity was detected in a multi-well plate counter at 37° C. by measuring the release of p-nitroaniline (pNA) at A405 nm.

[2] = biological target: T1, HNE-DNA complexes of NETs; assay: Plasminogen fragmentation by NETs-bound elastase (SDS-PAGE, Western blot); details: plasminogen 1 μM; NETs pre-incubated with inhibitor
Method: FIGS. 2A-C represent NETs-associated elastase digests plasminogen into fragments. Samples were analyzed by SDS-PAGE and Western blot using a specific sheep antibody directed against human plasminogen. FIG. 2A-B. Plasminogen fragmentation by NETs HNE•DNA complexes after 30 to 240 min (A) and 2 to 10 hours (B) of incubation. C. Western blot of purified plasminogen (Pg), plasmin (Pn) (left panel) and HNE-DNA-derived plasminogen fragments (middle panel). Plasminogen fragments produced by PMA stimulated neutrophils (middle panel) were not observed (right panel) in the presence of the elastase-specific inhibitor (EI) N-Methoxysuccinyl-Ala-Ala-Pro-Val-chloromethyl ketone.
Fibrin-NETs matrices were achieved by activation with PMA of neutrophils seeded onto fibrin surfaces prepared as described above. The neutrophils were seeded onto the fibrin matrix at 200 000 cells per well and were stimulated with PMA after 1 h plating as indicated above. […] Initial velocities of the reaction were calculated using an ad hoc computer program. • 2. […] HNE activity in samples collected in HBSS was measured with the chromogenic substrate MeO-Suc-AAPV-pNA (100 μl per well, 1.5 mM final concentration in HBSS) as indicated above. […] Signal was detected using the ECL kit from Amersham (Arlington Heights, U.K.) and the Curix-60-AGFA for development. […]

[3] = biological target: T2, HNE-DNA complexes of fibrin-NETs lattice (Homo sapiens, UniProt P08246); assay: Plasminogen activation by fibrin-bound tPA on fibrin-NETs matrices (plasmin formation)
T2 construct: endogenous in cells
T2 sequence (P08246 30-247 limits assumed): T1 sequence (P08246 30-247 limits assumed)
Method: FIGS. 3A-D represent the decrease in tPA-mediated plasmin formation by NETs formed onto fibrin. Neutrophils isolated from human blood were seeded onto fibrin in a 96-wells microtitre plate and activated by 50 nM PMA in HBSS. After binding of tPA to fibrin, plasminogen at varying concentrations was added to the interlaced NETs-fibrin structure. FIG. 3A-B. Plasmin formation from plasminogen (Pg) at 50 nM (A) and 500 nM (B) was monitored by measuring the released of pNA the plasmin-selective chromogenic substrate at 0.75 mM. Plasmin formation on fibrin. ● Plasmin formation on fibrin-NETs. ▪ Plasmin formation on fibrin-NETs treated with the elastase inhibitor MeO-Suc-AAPV-CMK. FIG. 3 C. After plasminogen activation the wells were carefully washed and the amount of fibrin-bound plasmin detected by adding 0.75 mM of the plasmin-selective chromogenic substrate. Grey bars: plasmin bound to the fibrin-NETs surface. […]
Fibrin-NETs matrices were achieved by activation with PMA of neutrophils seeded onto fibrin surfaces prepared as described above. […] Initial velocities of the reaction were calculated using an ad hoc computer program. • 2. […] HNE activity in samples collected in HBSS was measured with the chromogenic substrate MeO-Suc-AAPV-pNA (100 μl per well, 1.5 mM final concentration in HBSS) as indicated above. […]

Substance | effect on proteolytic activity of HNE-DNA complexes of NETs [1] | effect on proteolytic activity of HNE-DNA complexes of NETs ([1]; listed as aprotinin) | effect on conversion of plasminogen into fragments by NETs [2] | decrease of plasmin formed and remaining bound to untreated fibrin-NETs lattices compared with lattices in the presence of inhibitor ([3]; FIG. 3C) | plasmin formation / fibrinolytic activity at the fibrin-NET lattice ([3]; fibrin-NET lattice pre-incubated with inhibitor, tPA bound to fibrin)
Aprotinin | without effect | unable to modify | unable to modify |  | 
N-(Methoxysuccinyl)-L-alanyl-L-alanyl-L-prolyl-L-valine chloromethylketone [MeO-Suc-AAPV-CMK] | completely blocked; also recorded: completely inhibited |  | abolished the conversion of plasminogen into fragments; also recorded: plasminogen fragments were absent | around 50% | restored to control values
